In the test the target is TGF-beta receptor type-2 (Homo sapiens, UniProt P37173). Put plainly: Inhibition of TGBR2 signaling in human HEK293T cells assessed as inhibition of SMAD activation after 2 to 22 hrs by dual Luciferase Assay.
TGF-beta receptor type-2, sequence (P37173 whole entry): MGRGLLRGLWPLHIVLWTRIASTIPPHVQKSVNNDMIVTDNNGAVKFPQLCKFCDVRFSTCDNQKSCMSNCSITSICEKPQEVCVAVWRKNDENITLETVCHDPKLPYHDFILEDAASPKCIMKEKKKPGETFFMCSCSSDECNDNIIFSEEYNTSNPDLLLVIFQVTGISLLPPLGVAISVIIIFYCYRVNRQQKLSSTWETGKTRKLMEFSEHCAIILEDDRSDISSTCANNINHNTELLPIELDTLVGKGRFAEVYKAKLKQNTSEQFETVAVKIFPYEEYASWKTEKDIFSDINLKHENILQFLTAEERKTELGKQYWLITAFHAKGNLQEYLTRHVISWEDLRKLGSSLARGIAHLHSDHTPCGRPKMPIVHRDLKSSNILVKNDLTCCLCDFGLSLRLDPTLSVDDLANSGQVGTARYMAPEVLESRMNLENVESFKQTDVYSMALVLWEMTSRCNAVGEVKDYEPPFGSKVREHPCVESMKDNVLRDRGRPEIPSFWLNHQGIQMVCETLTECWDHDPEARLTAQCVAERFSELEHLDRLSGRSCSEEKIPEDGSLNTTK

With `CCOC(=O)C1=C(C)N=C2CC(C)(C)CC(=O)C2C1c1ccc(-c2ccccc2)cc1` (stereo unspecified), the IC50 (usually the midpoint of a concentration-inhibition curve) was 460 nM.

Source of the values: BindingDB's records for doi:10.1021/jm301144g (Human Biomolecular Research Institute, 2012).
